Tests used:
[1] = system: MIA-PaCa-2-RFP pancreatic cancer; test: Efficacy of oral CS-682 in surgical orthotopic implantation (SOI) mouse model of MIA-PaCa-2-RFP pancreatic cancer (Example 1); type: in vivo, nude mice (NCr-nu); conditions: for median survival: control 17 days; for mice with evident intra-abdominal fluid (ascites) on examination: 100% of controls within 16 days
Description: The model employed pancreatic tumors derived from the MIA-PaCa-2 pancreatic cancer cell line.
The MIA-PaCa-2 pancreatic cancer cell line was obtained from the American Type Culture Collection (Rockville, Md.), maintained in DMEM media supplemented with 10% heat-inactivated fetal bovine serum and 1% penicillin and streptomycin (Gibco-BRL, Life Technologies, Inc., Grand Island, N.Y.) and cultured at 37° C. in a 5% CO2 incubator.
The pDsRed-2 vector (Clontech Laboratories Inc., Palo Alto, Calif.) was used to engineer MIA-PaCa-2 clones stably expressing RFP. This vector expresses RFP and the neomycin resistance gene on the same bicistronic message. pDsRed-2 was produced in PT67 packaging cells. RFP transduction was initiated by incubating 20% confluent MIA-PaCa-2 cells with retroviral supernatants of the packaging cells and DMEM for 24 hours. Fresh medium was replenished at this time and cells were allowed to grow in the absence of retrovirus for 12 hours. This procedure was repeated until high levels of RFP expression, as determined using fluorescence microscopy, were achieved. Cells were then harvested by trypsin/EDTA and subcultured into selective medium that contained 200 μg/ml G418. The level of G418 was increased to 2000 μg/ml stepwise. Clones expressing high levels of RFP were isolated with cloning cylinders as needed, and were amplified and transferred using conventional culture methods. High RFP-expression clones were isolated in the absence of G418 for 10 passages to select for stable expression of RFP in vivo.
Male nude mice (NCr-nu) between 4-6 weeks of age were maintained in a barrier facility on HEPA-filtered racks. The animals were fed with autoclaved laboratory rodent diet (Teckland LM-485; Western Research Products, Orange, Calif.). Animal experiments were performed in accordance with the Guidelines for the Care and Use of Laboratory Animals (NIH Publication Number 85-23) under assurance number A3873-01.
Red-fluorescent human pancreatic cancer xenografts were established in nude mice by surgical orthotopic implantation (SOI). Briefly, MIA-PaCa-2-RFP tumors in the exponential growth phase, grown subcutaneously in nude mice, were resected aseptically. Necrotic tissues were cut away, and the remaining healthy tumor tissues were cut with scissors and minced into 1 mm^3 pieces in RPMI 1640 medium. Mice were then anesthetized and their abdomens were sterilized with alcohol. An incision was then created through the left upper abdominal pararectal line and peritoneum. The pancreas was carefully exposed and two tumor pieces were transplanted onto the middle of the gland using a single 8-0 surgical suture (Davis-Geck, Inc., Manati, Puerto-Rico). The pancreas was then returned into the peritoneal cavity, and the abdominal wall and the skin were closed in two layers using 6-0 surgical sutures. All procedures were performed with a 7× microscope (Olympus) or standard surgical loupes.
(§1) CS-682 (1-(2-C-cyano-2-deoxy-β-D-arabino-pentofuranosyl)-N^4-palmitoylcytosine, Sankyo Pharmaceuticals, Tokyo) was administered by oral gavage. Prior to the first treatment, mice were randomized into eight groups of 10 mice each for treatment purposes.
(§2) Groups 2, 3 and 4 received 40, 60 and 80 mg/kg/dose CS-682, respectively, each scheduled treatment day.
(§3) […] received 20, 30, 40 and 50 mg/kg/dose CS-682 twice each treatment day, respectively.
(§4) Dosing was initiated five days after surgical orthotopic implantation, and was performed five days each week until death.
External, in vivo whole body imaging, for at least once a week, mice were weighed and underwent external, in vivo imaging. This was performed in a fluorescent light box illuminated by fiberoptic lighting at 470 nm (Lightools Research, Encinitas, Calif.). Emitted fluorescence was collected through a long-pass filter GG475 (Chroma Technology, Battleboro, Vt.) on a Hamamatsu C5810 3-chip cooled color CCD camera (Hamamatsu Photonics Systems, Bridgewater, N.J.). […]

[2] = Body weight loss and toxicity of oral CS-682 in tumor-bearing nude mice (Example 1); type: in vivo; conditions: doses higher than 60 mg/kg per day, oral gavage
Description: as §1, §2, §3, §4
External, in vivo whole body imaging, for at least once a week, mice were weighed and underwent external, in vivo imaging. This was performed in a fluorescent light box illuminated by fiberoptic lighting at 470 nm (Lightools Research, Encinitas, Calif.). Emitted fluorescence was collected through a long-pass filter GG475 (Chroma Technology, Battleboro, Vt.) on a Hamamatsu C5810 3-chip cooled color CCD camera (Hamamatsu Photonics Systems, Bridgewater, N.J.). […] Images were processed for contrast and brightness and analyzed with the use of Image Pro Plus 3.1 software (Media Cybernetics, Silver Spring, Md.). Real-time determination of tumor burden was performed by quantifying fluorescent surface area, as described previously (Bouvet, M., et al., Cancer Res. (2002) 62:1534-1540).

[3] = system: MIA-PaCa-2-RFP pancreatic cancer; test: Primary and adjuvant (after surgical resection) CS-682 in orthotopic MIA-PaCa-2-RFP metastatic pancreatic cancer mouse model (Example 2); type: in vivo, nude mice
Text: The efficacy of oral CS-682 in the adjuvant treatment of metastatic pancreatic cancer was studied. […] The study discussed below used a highly aggressive clone of the human pancreatic cancer cell line MIA-PaCa-2 pancreatic cancer cell line that was engineered, as discussed above, to selectively express high levels of the Discosoma red fluorescent protein. This brightly fluorescent model facilitated the noninvasive quantification of tumor burden throughout the course of treatment.
The MIA-PaCa-2 pancreatic cancer cell line and the animals used in the study were prepared as discussed in Example 1, with the following exceptions. Following orthotopic implantation of MIA-PaCa-2-RFP tumors, each mouse in a treatment group requiring surgical resection of the primary pancreatic tumor was anesthetized and prepared for surgery. The peritoneum was subsequently reopened through the original incision and an examination of adjacent structures was performed to ensure that macroscopic disease was localized to the pancreas. All grossly visible tumor was removed using sharp dissection. Hemostasis was achieved using 6-0 sutures. The abdomen was then closed in two layers.
(§5) Seven days after SOI, mice were randomized into eight groups of 10 mice each, depending upon whether they were to be treated by surgical resection, chemotherapy or both. Mice in groups 1-4 were not treated surgically. […] Mice in groups 2-4 were treated with primary CS-682 at doses of 40, 50 Or 60 mg/kg each treatment day, respectively, according to the treatment schedules outlined below.
(§6) Mice in groups 5-8 underwent surgical resection of their primary tumors 7 days after orthotopic implantation by a single blinded surgeon. Mice in group 5 received no additional chemotherapy; mice in groups 6-8 received adjuvant CS-682 at doses of 40, 50 or 60 mg/kg each treatment day, respectively.
(§7) CS-682 was administered by oral gavage. Treatment with primary or adjuvant CS-682 was initiated 9 days after orthotopic tumor implantation (2 days after surgical resection when applicable) and was to be administered five times each treatment week for a total of 5 weeks or until death. […] In these groups, CS-682 was administered 9 times in weeks 1 and 2 after SOI and then 10 times in weeks 4 and 5, with a treatment hiatus during week 3.
(§8) Twice/week, mice were weighed and underwent external in vivo imaging. This was performed in a fluorescent light box illuminated by fiberoptic lighting at 470 nm (Lightools Research, Encinitas Calif.). […] Emitted fluorescence was collected through a long-pass filter GG475 (Chroma Technology, Battleboro, Vt.) on a Hamamatsu C5810 3-chip cooled color charge-coupled device camera (Hamamatsu Photonics Systems, Bridgewater, N.J.). High-resolution images of 1024×724 pixels were captured directly on an IBM PC or continuously through video output on a high-resolution Sony VCR model SLV-R1000 (Sony Corp., Tokyo, Japan). Images were processed for contrast and brightness and analyzed with the use of Image Pro Plus 3.1 software (Media Cybernetics, Silver Spring, Md.). Real-time determination of tumor burden was performed by quantifying fluorescent surface area.
Mice were sacrificed and explored when they appeared premorbid. After euthanasia, each mouse underwent laparotomy and sternotomy. Excitation of RFP in the light box, described above, facilitated identification of primary and metastatic disease by fluorescence visualization. After performing full-body open images, the solid organs were removed, and their surfaces were thoroughly examined for any evidence of metastases. Fluorescence microscopy was accomplished using a Leica fluorescence stereo microscope model LZ12 (Leica Microsystems, Inc., Bannockburn, Ill.) equipped with a mercury 50-W lamp power supply. Selective excitation of RFP was produced through a […]. Emitted fluorescence was collected by the Hamamatsu camera system described above. […]

[4] = Analysis of toxicity (body weight, general appearance) of CS-682 in Example 2 mice; type: in vivo; conditions: for body weight: oral gavage
Description: as §5, §6, §7, §8
The body weight and general appearance of each mouse were monitored and recorded twice weekly as evidence of systemic toxicity. […] Wasting of body fat, most pronounced in the interscapular area of the back, was a common late finding that occurred in conjunction with disseminated disease.

[5] = system: subcutaneously-implanted solid tumor xenografts; conditions: several subcutaneously-implanted solid tumor xenografts; cited from earlier work
[6] = system: tumor cell lines of the stomach, lung, colon and breast; conditions: oral CS-682; cited from earlier work

## CCCCCCCCCCCCCCCC(=O)Nc1ccn([C@@H]2O[C@H](CO)[C@@H](O)[C@@H]2C#N)c(=O)n1 [CS-682, 1-(2-C-cyano-2-deoxy-β-D-arabino-pentofuranosyl)-N^4-palmitoylcytosine]
[1]; 20 mg/kg twice daily oral, p=0.003
  median survival: 27 days
[1]; 20 mg/kg twice daily, 40 mg/kg daily and 60 mg/kg daily, p<0.05 at each time point
  tumor growth (mean area of external RFP autofluorescence): inhibit pancreatic cancer growth
[1]; 30 mg/kg twice daily oral
  median survival: 19 days
[1]; 40 mg/kg and 60 mg/kg daily, control within first two weeks
  time until widespread tumor metastasis visible by whole-body RFP imaging: not visible until the third and fourth week post-implantation
[1]; 40 mg/kg daily
  development of metastases at autopsy (diaphragm, portal nodes, liver, intestinal nodes, kidney): significantly inhibited the development of metastases
  mice with evident intra-abdominal fluid (ascites) on examination: 50%
[1]; 40 mg/kg daily oral, p=0.0008
  median survival: 35 days
[1]; 40 mg/kg daily, day 16 after implantation
  mice with locally confined disease: 90%
[1]; 40 mg/kg daily, control 5.163 g, p=0.16
  primary tumor average weight at autopsy: 3.935 g
[1]; 40 mg/kg twice daily oral
  median survival: 19 days
[1]; 50 mg/kg twice daily oral
  median survival: 18 days
[1]; 60 mg/kg daily (p=0.0004), 20 mg/kg twice daily (p=0.003)
  effect on primary tumor growth (weight at autopsy): significant effect on primary tumor growth
[1]; 60 mg/kg daily oral, p=0.002
  median survival: 36 days
[1]; 60 mg/kg daily
  mice with evident intra-abdominal fluid (ascites) on examination: 10%
[1]; 80 mg/kg daily oral
  median survival: 19 days
[2]
  toxicity-related death: toxicity-related death was observed in a significant number of mice
[3]; adjuvant 50 mg/kg after surgical resection
  mice that lived at least 60 days: 30%
[3]; adjuvant 50 mg/kg after surgical resection, day 23
  animals with at most local disease confined to one abdominal quadrant: 70%
[3]; adjuvant 50 mg/kg after surgical resection, untreated 26 days, resection alone 28 days
  median survival: 48 days
[3]; adjuvant 50 mg/kg, the 30% of mice with long-term survival
  time after completion of chemotherapy until distant metastasis seen: 10 days
[3]; adjuvant CS-682 after surgical resection
  animals showing signs of fluid retention (ascites) at the time of their death: 20%
[3]; adjuvant CS-682 after surgical resection, all doses tested (40, 50, 60 mg/kg)
  survival versus treatment controls: significant increase in survival over treatment controls
[3]; primary CS-682 without resection, 40, 50 and 60 mg/kg
  survival versus untreated: significantly enhanced the survival
[4]; 40 mg/kg each treatment day
  body weight: not associated with a significant loss in body weight
[4]; 50 mg/kg each treatment day, chronic
  body weight: did not lead to a significant loss of body weight
[4]; 60 mg/kg, by day 20, after first nine doses
  loss in body weight: 15%
[4]; 60 mg/kg, modified schedule with hiatus in week 3, day 41
  animals lost to toxicity: 1 animal
[5]
  antitumor activity: potent antitumor activity
[6]
  cytotoxic activity compared with parent compound CNDAC: more potent cytotoxic activity than its parent compound
